This note sets out measurements from ChEMBL document CHEMBL1275418, “IMP-15-producing Pseudomonas aeruginosa strain isolated in a U.S. medical center: a recent arrival from Mexico” (2008).

Common to all, as to format: functional
In experiment [1] the test system is Pseudomonas aeruginosa. The experiment in a line: Antibacterial activity against Pseudomonas aeruginosa 1750J expressing beta-lactamase IMP-15 by Etest.
For experiment [2], the system named is Pseudomonas aeruginosa. The experiment in a line: Antibacterial activity against Pseudomonas aeruginosa isolates by Etest.
Experiment [3] deals with Pseudomonas aeruginosa. The experiment in a line: Antibacterial activity against Pseudomonas aeruginosa 1750J expressing beta-lactamase IMP-15 by Etest in presence of beta-lactamase inhibitor Tazobactam.
Experiment [4] has as its system Pseudomonas aeruginosa. In words: Antibacterial activity against Pseudomonas aeruginosa 1750J expressing beta-lactamase IMP-15 by Etest in presence of EDTA.

Take GENTAMICIN: the MIC (commonly the smallest concentration in the dilution series that meets the test's criterion for growth inhibition) against Pseudomonas aeruginosa [1] was over 256 µg/mL.

On to `C[C@@H](O)[C@H]1C(=O)N2C(C(=O)O)=C(S[C@@H]3CN[C@H](C(=O)N(C)C)C3)[C@H](C)[C@H]12` [MEROPENEM], for which the MIC in the experiment on Pseudomonas aeruginosa [2] is at least 8 µg/mL; in the experiment on Pseudomonas aeruginosa [1], over 32 µg/mL.

Take `CC(C)(O/N=C(\C(=O)N[C@@H]1C(=O)N2C(C(=O)[O-])=C(C[n+]3ccccc3)CS[C@H]12)c1csc(N)n1)C(=O)O` [CEFTAZIDIME]: the MIC was at least 16 µg/mL with Pseudomonas aeruginosa [2] and over 256 µg/mL against Pseudomonas aeruginosa [1].

In the experiment on Pseudomonas aeruginosa [1], `C[C@@H](O)[C@H]1C(=O)N2C(C(=O)O)=C(S[C@@H]3CN[C@H](C(=O)Nc4cccc(C(=O)O)c4)C3)[C@H](C)[C@H]12` [ERTAPENEM] had an MIC of over 32 µg/mL.

In the case of `O=C(O)c1cn(C2CC2)c2cc(N3CCNCC3)c(F)cc2c1=O` [CIPROFLOXACIN], in the experiment with Pseudomonas aeruginosa [1], the MIC was over 32 µg/mL.

Turning to `CCN1CCN(C(=O)N[C@@H](C(=O)N[C@@H]2C(=O)N3[C@@H]2SC(C)(C)[C@@H]3C(=O)O)c2ccccc2)C(=O)C1=O` [PIPERACILLIN], the minimum inhibitory concentration (MIC) with Pseudomonas aeruginosa [3] was over 256 µg/mL.

As to `O=C(O)C1=CC[C@@H]2CC(=O)N12` [CARBAPENEM], the results for the MIC in the experiment with Pseudomonas aeruginosa [2] and in the experiment with Pseudomonas aeruginosa [4] were over 256 µg/mL and 8 µg/mL, respectively.

As for `C[C@@H](O)[C@H]1C(=O)N2C(C(=O)O)=C(SCCNC=N)C[C@H]12` [IMIPENEM ANHYDROUS], the minimal inhibitory concentration (MIC) was at least 8 µg/mL against Pseudomonas aeruginosa [2] and over 32 µg/mL against Pseudomonas aeruginosa [1].

Consider `NC[C@H]1O[C@H](O[C@H]2[C@H](O)[C@@H](O[C@H]3O[C@H](CO)[C@@H](O)[C@H](N)[C@H]3O)[C@H](N)C[C@@H]2N)[C@H](N)C[C@@H]1O` [TOBRAMYCIN], for which, in the experiment on Pseudomonas aeruginosa [1], the MIC is over 256 µg/mL.
